Data as given in ChEMBL document CHEMBL3507680, “University of Dundee, Gates Library screen for HepG2 cell viability”.

Assay: Human HepG2 cell viability assay in 384 well format
Format: toxicity, cell-based
Set-up: dose 125 nL, time 70.5 hour; cytotoxicity at 70.5 h: concentration not given beside the values
Conditions: HepG2 cells, read-out: Inhibition

| SMILES | cytotoxicity at 70.5 h |
| --- | --- |
| CC(C)c1noc(CN(C)C(c2ccc(F)cc2)c2cccnc2)n1 (stereo not given) | 10.2% |
| Cc1noc(C)c1CCc1nc(C2CCOC2)no1 (stereo not given) | -11.1% |
| CCCc1ncc(C(=O)N2CCOc3ncccc32)s1 | -2.81% |
| COCCNC(=O)C(C)N1CCN(C)CC1 (stereo not given) | -5.18% |
| CCOCC(O)CN1CCN(C(=O)Cc2cccc(Cl)c2)CC1 (stereo not given) | -5.95% |
| O=c1c2ccccc2nnn1CN(CC1CCOC1)C1CC1 (stereo not given) | -2.98% |
| CS(=O)(=O)N1CCC(Oc2cnccn2)CC1 | -5.72% |
| CC(C)NC(=O)c1cccc(Oc2ccc3nncn3n2)c1 | 23.3% |
| CC(C)c1nnc(CNC2CCCN(Cc3noc(C4CC4)n3)C2)o1 (stereo not given) | -5.67% |
| CC(C)CO[C@H]1CN(S(=O)(=O)c2cn(C)cn2)[C@@H]2CCCO[C@H]12 | 18% |
| c1nc(N2CCOCC2)nc2c1COCC21CCN(CC2CC2)C1 (stereo not given) | -6.25% |
| Nc1cc(C(=O)N2CCC(Oc3cccc(C(F)(F)F)c3)CC2)ccn1 | -3.83% |
| CC(C)(CN1CCCC1)CN1CCC(Cn2cc(CCO)nn2)CC1 | 18.9% |
| CCc1ncnc2c1CCN(C(=O)c1ccncc1F)CC2 | -6.52% |
| CCc1csc(CNc2cc(C)nc(-c3cccnc3)n2)n1 | -7.79% |
| COCCOc1cccc(CNC(=O)CN2CCN(C)CC2C)c1 (stereo not given) | 10.3% |
| Cc1ccc2cc(C3(O)CCN(C(=O)[C@@H]4CCCCN4)CC3)ccc2n1 | -2.74% |
| CCn1cnnc1C1CCN(C(=O)c2ccoc2C)CC1 | 11.9% |
| O=C(Cn1nc(C(F)(F)F)c(Br)c1C1CC1)N1CCOCC1 | -5.88% |
| Cc1csc(CN2CC[C@@](O)(C3CCOCC3)[C@H](C)C2)n1 | -5.11% |
| CC(C)S(=O)(=O)C(C)C(=O)NCc1ccccc1COc1ccccc1 (stereo not given) | -11% |
| c1cnc(N2CCC3(CCN(CC4CCOC4)C3)CC2)nc1 (stereo not given) | -17.9% |
| COCCCn1cnnc1C(C)NC(=O)c1[nH]c2ccc(C)cc2c1C (stereo not given) | -4.22% |

| SMILES | cytotoxicity at 70.5 h |
| --- | --- |
| O=S(=O)(NCc1ccccc1)Nc1ccc(-n2cncn2)cc1 | -5.87% |
| CCCc1n[nH]c(C2CN(CCNS(=O)(=O)CC)CCO2)n1 (stereo not given) | 7.53% |
| O=C(Nc1ccnc(OC2CCOC2)c1)c1cc(F)ccc1F (stereo not given) | 14.1% |
| CCCN1CCC(Cc2noc(-c3ncccc3C)n2)CC1 | -5.81% |
| CCc1nccn1C1CCCN(C(=O)c2cc3nc(C)ccc3o2)C1 (stereo not given) | -2.05% |
| Cc1cccc(-c2noc(CN3CCOC(Cn4cccn4)C3)n2)c1 (stereo not given) | -11.5% |
| CN(C1CCCC1)C(C)(C)C(=O)NCCNC(N)=O | -0.603% |
| O=C(CC1CCCC1)N1CCn2cc(Cn3cccn3)nc2C1 | -11.5% |
| CCn1nc(C)c(CN(C)S(=O)(=O)c2cnn(C)c2)c1C | -5.84% |
| c1cncc(C2CC3(CCN(c4cnccn4)CC3)c3ccccc32)c1 (stereo not given) | -1.15% |
| O=C(NCCNc1ncccn1)NCCc1c(F)cccc1F | -13.1% |
| O=C(c1ccn(-c2ccccc2Cl)n1)N1CCCSCC1 | -3.62% |
| Cc1ccc(CN2C[C@@H]3CCCO[C@@H]3[C@H](NS(C)(=O)=O)C2)o1 | -9.45% |
| COc1ccc(NC(=O)NC(C)(C)c2noc(C)n2)cc1 | 0.532% |
| COc1ccc(SCC2CNc3nc4ccccc4c(=O)n32)cc1 (stereo not given) | 1.56% |
| CCOC(=O)CC1CCCCN1C(=O)c1cc(=O)[nH]c(=O)[nH]1 (stereo not given) | 11.7% |
| Cc1nsc(NC(=O)NC2(CN3CCOCC3)CCCC2)n1 | -8.03% |
| CN(CCn1cncc1-c1cnc(N2CCOCC2)nc1)C1CCCC1 | -5.17% |
| c1cncc(-c2noc(CN3CCOC(Cn4cccn4)C3)n2)c1 (stereo not given) | -4.62% |
| Cc1cc(CNc2ccc(C(=O)N3CCc4ccccc43)cn2)on1 | -1.24% |
| c1ccc2cc(OCCN3CCOC(Cn4cncn4)C3)ccc2c1 (stereo not given) | 27.8% |
| O=C(CS(=O)(=O)Cc1cc(Cl)c2c(c1)OCO2)N1CCCC1 | -0.922% |
| CC(C)C1CN(C(=O)c2nccnc2N)CCS1 (stereo not given) | -4.8% |

| SMILES | cytotoxicity at 70.5 h |
| --- | --- |
| c1cnc(N2CC3(CCN(CC4CCOC4)CC3)c3ccccc32)nc1 (stereo not given) | 0.807% |
| COCCN1CCC(c2cncc(-c3cccc(Cl)c3)n2)CC1 | -5.78% |
| O=C(c1cccnc1)N1CCc2[nH]nc(Nc3ccccc3)c2C1 | -6.1% |
| COc1ccc(CCC(C)Nc2cccc(SC)c2)cc1 (stereo not given) | 23.6% |
| CN(C)C(=O)N1C[C@@H]2CC[C@H](C1)N(Cc1nnc(-c3ccccc3)o1)C2 | -16.7% |
| CN(CCN1CCOCC1)C(=O)CCc1ccc(C(F)(F)F)cc1 | 10.6% |
| Cc1cc(C)n(CC(=O)N2C[C@@H]3CC[C@H](C2)N(CC2CCC2)C3)c(=O)n1 | 24.1% |
| CCOCC1CN(C(=O)c2ccco2)Cc2nn(C)cc21 (stereo not given) | -9.75% |
| Fc1ccc(CNCc2nnc3n2CC(C(F)(F)F)CC3)cc1 (stereo not given) | -13.6% |
| CCn1cc(CN(C)C(=O)c2cc(C(F)(F)F)n(C)n2)cn1 | -7.42% |
| CN(C)C(=O)[C@@H]1C[C@@H]2CCN(C3CCOCC3)C[C@@H]2O1 | 12.2% |
| CCCn1nnnc1COC(=O)C1COc2ccc(Cl)cc2C1 (stereo not given) | -5.74% |
| O=C(C1CC1)N1CCc2nc(C3CCN(C(=O)C4CC4)C3)nc(O)c2C1 (stereo not given) | -10% |
| Cc1cccc(CN2CCC3(CCN(c4ccccn4)C3)C2=O)c1 (stereo not given) | -11.4% |
| COc1cc(Cl)ccc1C(=O)NCc1nncn1C | -6.32% |
| CN1CCN(C(=O)c2ncn3c2CNS(=O)(=O)c2ccccc2-3)CC1 | 1.85% |
| Cc1cc(C)nc(NCCC(=O)NCCn2ccnc2C)n1 | 3.01% |
| Cc1cnn(CC2CCCN2C(=O)c2nccnc2N)c1 (stereo not given) | -6.62% |
| CC(=O)NCC1CCN(c2ccnc3ccc(Br)cc23)CC1 | -2.63% |
| O=C(c1cc2cccc(F)c2[nH]1)N1C[C@@H](O)[C@H](N2CCCC2)C1 | -4.92% |
| CC(C)(C)c1nc(CN2CCC(N3CCCCC3)CC2)no1 | -2.12% |
| CC(C)N1CCn2c(nc3cc(C(N)=O)ccc32)C1 | -16.5% |
| Cn1nnc2c1C(COCc1ccccn1)CN(C(=O)c1ccsc1)C2 (stereo not given) | -6.33% |

| SMILES | cytotoxicity at 70.5 h |
| --- | --- |
| CCn1cc(CN2CC3CCCN3C[C@H]2C)c(C)n1 (stereo not given in full) | 2.28% |
| CC(C)N(CCO)C(=O)C1CCC(=O)N(Cc2ccc(Cl)cc2)C1 (stereo not given) | -4.75% |
| CC(NC(=O)N1CCN(c2ncccn2)CC1)c1ccc(C#N)cc1 (stereo not given) | -4.87% |
| c1ccc(N2CCCC3(COCCN(c4nccs4)C3)C2)nc1 (stereo not given) | -0.38% |
| O=C(Nc1cc(C(F)(F)F)ccc1Cl)c1ccc(N2CCCC2)nn1 | 19.7% |
| Cn1cnc(S(=O)(=O)N2CCO[C@H]3[C@H](OCC4CC4)CC[C@@H]32)c1 | -2.37% |
| COc1cccc(S(=O)(=O)CCN2CCCN(C(C)=O)CC2)c1 | 0.259% |
| CC(C)COC(C)C(=O)NCCNS(C)(=O)=O (stereo not given) | -7.36% |
| COc1ccc(-n2ccnc2-c2cnc(N(C)C)nc2)cc1OC | -6.47% |
| CS(=O)(=O)N[C@@H]1CCN(Cc2ccncc2)[C@H]1Cc1cccnc1 | -12.8% |
| CNc1cc(C2CN(Cc3csc(C)n3)CCO2)nc(C)n1 (stereo not given) | 9.88% |
| NCC1Cc2cccc(-c3ccc(O)c(F)c3)c2O1 (stereo not given) | -13.6% |
| Cc1nc(CN2CCOC3(CCCC3)C2)no1 | -5.91% |
| O=C(O)c1c[nH]c2cc(NS(=O)(=O)c3cc(F)ccc3Cl)ccc12 | -9.41% |
| CN(CC(=O)NC(Cc1ccccc1)C1CCCC1)S(C)(=O)=O (stereo not given) | -3.31% |
| O=S(=O)(N1CCCC1)N1CCN(CC2CCCO2)CC1 (stereo not given) | -3.59% |
| CSc1nccn1-c1cccc(C(=O)NCC2CC2)c1 | 0.766% |
| CC(C)(C)c1ncc2c(n1)CN(C(=O)c1ccc3[nH]cnc3c1)C2 | -3.17% |
| CC(C)(C)c1cc(NC(=O)CNC2CCc3ncnn3C2)on1 (stereo not given) | -11.9% |
| Cc1ncsc1CCC(=O)NCc1cc2n(n1)CCN(C(=O)N(C)C)C2 | 13.9% |
| COCC(=O)NCCc1nc(N(C)C)ncc1-c1ccncc1 | -6.86% |
| CN(Cc1cnc(N)nc1)C(=O)C1CC(=O)N(Cc2ccncc2)C1 (stereo not given) | -10.8% |
| Cc1cc(C)n(C2CN(CC(O)c3ccc(F)cc3)C2)n1 (stereo not given) | -10.7% |

| SMILES | cytotoxicity at 70.5 h |
| --- | --- |
| COCc1ccccc1C(=O)N(C)Cc1ncc(C)c(OC)c1C | 19.4% |
| CC(C)(C)CN[C@@H]1CO[C@H](CNC(=O)C2CCCC2)[C@H]1O | -14% |
| CCCN(Cc1nnnn1C1CC1)CC1COc2ccccc2O1 (stereo not given) | 0.609% |
| CC(C)c1nnc(CN2CCC3(CC2)Nc2ccccc2NC3=O)o1 | 18% |
| CN(Cc1nnc(C2CC2)n1C)C1CCN(Cc2ccncc2)C1 (stereo not given) | -2.37% |
| COc1ccc(-c2noc(CCC(=O)N3CCOCC3(C)C)n2)cc1 | -3.78% |
| NC(=O)CSCCC(=O)NCC1CC1 | 3.32% |
| Cc1nccn1-c1ncccc1NC(=O)CCOCC(C)C | -7.64% |
| CC(NC(=O)NCC1(O)CCC1)c1ccc(OCC2CC2)c(F)c1 (stereo not given) | -12% |
| Nc1nc(CCCNC(=O)c2ccc(C3CCCNC3)cc2)cs1 (stereo not given) | -7.45% |
| CCN(Cc1ccc2c(c1)OCCO2)C(=O)NCCc1cnn(C)c1 | 0.223% |
| COc1ccccc1C1SCC(=O)Nc2n[nH]cc21 (stereo not given) | 3.24% |
| CN(C)C(=O)C1CN(c2ncccn2)CCN1C (stereo not given) | -1.97% |
| CCN1CCOC(CNCc2csc(C)n2)C1 (stereo not given) | -14.2% |
| CNC(=O)CNC(=O)Nc1ccc(Br)c(F)c1 | -4.08% |
| O=C(c1ccc2sccc2c1)N1CCC(C(=O)O)(n2ccnc2)CC1 | 3.47% |
| O=C(c1cccnc1O)N(Cc1cccs1)CC1CCCO1 (stereo not given) | -11.9% |
| CN1CCN(C(=O)C2CCN(c3cccnn3)CC2)CC1 | -5.88% |
| Cc1cc(-c2cnn(CCNC(=O)CCn3cccn3)c2C2CC2)on1 | -3.81% |
| CS(=O)(=O)Cc1noc(CN2CCN(c3ccccc3Cl)CC2)n1 | -76.6% |
| O=C(O)CN1CCOCC(Cc2ccc(Cl)cc2)C1 (stereo not given) | -7.85% |
| Cc1noc(-c2ccnc(N3CCC(N4CCCC4)CC3)c2)n1 | -8.66% |
| Cc1ccc(F)cc1-n1c(CN(C)S(C)(=O)=O)n[nH]c1=O | -8.73% |
